Values after ≈ are worked out from the molar mass of the structure shown. Like-named read-outs stand apart in the source and are kept apart here.
Columns and labels:
Format in all cases: cell-based
[1] = test system: Staphylococcus aureus 45 RAR 2; assay: microbe, parasite or virus in culture; settings: 45RAR2
Method: (§1) The antimicrobial spectra of a number of compounds of the invention were tested by the following method:
(§2) Twelve petri dishes containing successive aqueous dilutions of the test compound mixed with 10 ml of sterilized Brain Heart Infusion agar (Difco 0418-01-5) are prepared. Each plate is inoculated with 1:100 (or 1:10 for slow growing strains, primarily Micrococcus and Streptococcus) dilutions of up to 32 different microorganisms, using a Steers replicator block The inoculated plates are incubated at 35°-37° C. for 20-24 hours. In addition, a control plate, using BHI agar containing no test compound, is prepared and incubated at the beginning and end of each test.
(§3) An additional plate containing a compound having known susceptibility patterns for the organisms being tested and belonging to the same antibiotic class as the test compound is also prepared and incubated as a further control, as well as to provide test-to-test comparability. Erythromycin A was used for this purpose.
(§4) After incubation, each disk is read. The MIC is defined as the lowest concentration of drug yielding no growth, a slight haze, or sparsely isolated colonies on the inoculum spot as compared to the growth control.

[2] = test system: Streptococcus agalactiae CMX 508; assay: In vitro antibacterial activity, agar dilution MIC
Method: as §1, §2, §3, §4

[3] = test system: Streptococcus pyogenes 2548 INDUC; assay: In vitro antibacterial activity, agar dilution MIC; settings: S. pyogenes 2548 INDUC, Brain Heart Infusion agar, 20-24 hours, read-out: MIC
Method: as §1, §2, §3, §4

Staphylococcus aureus 45 = assay: In vitro antibacterial activity, agar dilution MIC; settings: S. aureus 45, Brain Heart Infusion agar, 20-24 hours, read-out: MIC
Method: as §1, §2, §3, §4

Escherichia coli H560 = assay: In vitro antibacterial activity, agar dilution MIC; settings: H560
Method: as §1, §2, §3, §4

[4] = test system: Staphylococcus aureus CMX 553; assay: In vitro antibacterial activity, agar dilution MIC; settings: CMX553, S. aureus CMX 553, Brain Heart Infusion agar, 20-24 hours, read-out: MIC
Method: as §1, §2, §3, §4

Escherichia coli SS = assay: In vitro antibacterial activity, agar dilution MIC; settings: E. coli SS, Brain Heart Infusion agar, 20-24 hours, read-out: MIC
Method: as §1, §2, §3, §4

[5] = test system: Micrococcus luteus ATCC 9341; assay: In vitro antibacterial activity, agar dilution MIC
Method: as §1, §2, §3, §4

Escherichia coli Juhl = assay: In vitro antibacterial activity, agar dilution MIC; settings: E. coli Juhl, Brain Heart Infusion agar, 20-24 hours, read-out: MIC
Method: as §1, §2, §3, §4

[6] = test system: Staphylococcus aureus ATCC 6538P; assay: In vitro antibacterial activity, agar dilution MIC; settings: ATCC6538P, S. aureus ATCC 6538P, Brain Heart Infusion agar, 35-37° C., 20-24 hours, read-out: MIC
Method: as §1, §2, §3, §4

[7] = test system: Micrococcus luteus ATCC 4698; assay: In vitro antibacterial activity, agar dilution MIC; settings: ATCC4698, M. luteus ATCC 4698, Brain Heart Infusion agar, 20-24 hours, read-out: MIC
Method: as §1, §2, §3, §4

[8] = test system: Staphylococcus aureus A5177; assay: In vitro antibacterial activity, agar dilution MIC; settings: S. aureus A5177, Brain Heart Infusion agar, 20-24 hours, read-out: MIC
Method: as §1, §2, §3, §4

[9] = test system: Staphylococcus aureus CMX 503A; assay: In vitro antibacterial activity, agar dilution MIC; settings: CMX503A, S. aureus CMX 503A, Brain Heart Infusion agar, 20-24 hours, read-out: MIC
Method: as §1, §2, §3, §4

Escherichia coli DC-2 = assay: In vitro antibacterial activity, agar dilution MIC; settings: DC2, E. coli DC-2, Brain Heart Infusion agar, 20-24 hours, read-out: MIC
Method: as §1, §2, §3, §4

[10] = test system: Streptococcus bovis A5169; assay: In vitro antibacterial activity, agar dilution MIC
Method: as §1, §2, §3, §4

[11] = test system: Staphylococcus epidermidis 3519; assay: In vitro antibacterial activity, agar dilution MIC; settings: S. epidermidis 3519, Brain Heart Infusion agar, 20-24 hours, read-out: MIC
Method: as §1, §2, §3, §4

[12] = test system: Streptococcus pyogenes 930 CONST; assay: In vitro antibacterial activity, agar dilution MIC
Method: as §1, §2, §3, §4

[13] = test system: Staphylococcus aureus CMX 686B; assay: In vitro antibacterial activity, agar dilution MIC; settings: CMX686B, S. aureus CMX 686B, Brain Heart Infusion agar, 20-24 hours, read-out: MIC
Method: as §1, §2, §3, §4

[14] = test system: Enterococcus faecium ATCC 8043; assay: In vitro antibacterial activity, agar dilution MIC; settings: ATCC8043, E. faecium ATCC 8043, Brain Heart Infusion agar, 20-24 hours, read-out: MIC
Method: as §1, §2, §3, §4

[15] = test system: Streptococcus pyogenes EES61; assay: In vitro antibacterial activity, agar dilution MIC; settings: S. pyogenes EES61, Brain Heart Infusion agar, 20-24 hours, read-out: MIC
Method: as §1, §2, §3, §4

Work on `CC[C@H]1OC(=O)[C@H](C)[C@@H](O[C@H]2C[C@@](C)(OC)[C@@H](O)[C@H](C)O2)[C@H](C)[C@@H](O[C@@H]2O[C@H](C)C[C@H](N(C)C)[C@H]2O)[C@](C)(O)C[C@@H](C)[C@@H](N2CCN(C(C)=O)CC2)[C@H](C)[C@@H](O)[C@]1(C)O` [Example 16] yielded an MIC [1] of 3.1 µg/mL (≈ 3.66 µM), an MIC ([2]; CMX508, S. agalactiae CMX 508, Brain Heart Infusion agar, 20-24 hours, read-out: MIC) of 0.39 µg/mL (≈ 0.461 µM) and an MIC [3] of 50 µg/mL (≈ 59.1 µM). It also gave an MIC (Staphylococcus aureus 45) of 1.56 µg/mL (≈ 1.84 µM), an MIC (Escherichia coli H560) of 50 µg/mL (≈ 59.1 µM) and an MIC [4] of 1.56 µg/mL (≈ 1.84 µM). It also gave an MIC (Escherichia coli SS) of 1.56 µg/mL (≈ 1.84 µM), an MIC ([5]; ATCC9341, read-out: MIC) of 0.2 µg/mL (≈ 0.236 µM) and an MIC (Escherichia coli Juhl) greater than 100 µg/mL. The MIC [6] was 1.56 µg/mL (≈ 1.84 µM), the MIC [7] was 1.56 µg/mL (≈ 1.84 µM) and the MIC [8] was 50 µg/mL (≈ 59.1 µM). For the same molecule, the MIC [9] was 1.56 µg/mL (≈ 1.84 µM), the MIC (Escherichia coli DC-2) was greater than 100 µg/mL and the MIC [10] was 0.1 µg/mL (≈ 0.118 µM). For the same molecule, the MIC [11] was 1.56 µg/mL (≈ 1.84 µM), the MIC ([12]; 930CONST) was greater than 100 µg/mL and the MIC [13] was 1.56 µg/mL (≈ 1.84 µM). The MIC [14] was 0.78 µg/mL (≈ 0.922 µM) and the MIC [15] was 0.1 µg/mL (≈ 0.118 µM).
`CC[C@H]1OC(=O)[C@H](C)[C@@H](O[C@H]2C[C@@](C)(OC)[C@@H](O)[C@H](C)O2)[C@H](C)[C@@H](O[C@@H]2O[C@H](C)C[C@H](N(C)C)[C@H]2O)[C@](C)(O)C[C@@H](C)[C@@H](N2CCN(C(=O)OCc3ccccc3)CC2)[C@H](C)[C@@H](O)[C@]1(C)O` [Example 18] showed an MIC [1] of 1.56 µg/mL (≈ 1.66 µM), an MIC ([2]; CMX508, read-out: MIC) of 0.2 µg/mL (≈ 0.213 µM) and an MIC [3] of 12.5 µg/mL (≈ 13.3 µM). It also gave an MIC (Staphylococcus aureus 45) of 0.78 µg/mL (≈ 0.831 µM), an MIC (Escherichia coli H560) of 50 µg/mL (≈ 53.3 µM) and an MIC [4] of 0.78 µg/mL (≈ 0.831 µM). The MIC (Escherichia coli SS) was 3.1 µg/mL (≈ 3.3 µM), the MIC ([5]; ATCC9341) was 0.1 µg/mL (≈ 0.107 µM) and the MIC (Escherichia coli Juhl) was greater than 100 µg/mL. It also gave an MIC [6] of 0.78 µg/mL (≈ 0.831 µM), an MIC [7] of 0.78 µg/mL (≈ 0.831 µM) and an MIC [8] of 12.5 µg/mL (≈ 13.3 µM). The MIC [9] was 0.78 µg/mL (≈ 0.831 µM), the MIC (Escherichia coli DC-2) was greater than 100 µg/mL and the MIC ([10]; S. bovis A5169, Brain Heart Infusion agar, 20-24 hours, read-out: MIC) was 0.05 µg/mL (≈ 0.0533 µM). For the same molecule, the MIC [11] was 0.78 µg/mL (≈ 0.831 µM), the MIC ([12]; S. pyogenes 930 CONST, Brain Heart Infusion agar, 20-24 hours, read-out: MIC) was 50 µg/mL (≈ 53.3 µM) and the MIC [13] was 0.78 µg/mL (≈ 0.831 µM). It also gave an MIC [14] of 0.39 µg/mL (≈ 0.416 µM) and an MIC [15] of 0.1 µg/mL (≈ 0.107 µM).

— US5075289A, “9-R-azacyclic erythromycin antibiotics” (priority 1988, dated 1991)
